{"source": "patent EP0232423A1", "about": "“CIRCULATION IMPROVING AGENT” (GRELAN PHARMACEUTICAL CO., LTD., priority 1985, dated 1987)", "key": {"Acute toxicity (LD50)": {"experiment": "Acute toxicity (LD50)", "conditions": "mouse, in vivo, mice"}, "ddY male mice [1]": {"system": "ddY male mice", "experiment": "Thromboembolic respiratory depression induced by ADP", "format": "in vivo", "conditions": "30 mg/kg oral, ADP 40 mg/kg i.v., Compound (I) = erythro form", "protocol": "The degree of formation of platelet thrombi in the pulmonary vessels of mice induced by intravenous administration of ADP can be measured based on the decrease in the respiratory rate. The anti-platelet thrombotic action of test drugs can be evaluated by using this decrease in the respiratory rate as a standard. […] Relative respiratory rate (%) was calculated according to the following formula. [formula] (cf. \"Thrombosis Research\", Vol. 35, Page 311, 1984)"}, "mice": {"system": "mice", "experiment": "Protective action on death caused by endotoxin shock", "format": "in vivo", "conditions": "for Number of survival after administration of endotoxin: of 15 (Compound (I)) or 14 (ifenprodil) animals", "description": "Compound (I) and ifenprodil tartrate were orally administered to mice and the protective action on death due to endotoxin shock was examined in accordance with a known method (Folia pharmacol. japon, vol. 86, page 17, 1985). The control group was drug-untreated."}, "platelets of rabbit": {"system": "platelets of rabbit", "experiment": "Fluidity of platelet membrane (fluorescence polarization)", "format": "cell-based", "parameters": "Fluorescence polarization: unit not given here", "conditions": "fluidity increases as value decreases", "description": "The activity of compound (I) (lactate) and ifenprodil tartrate against the fluidity of platelet membrane was examined according to a known method (Biochimica et Biophysica Acta, vol. 798, page 210, 1984) using platelets of rabbit and using n-butyl alcohol as a positive control."}, "α1-adrenoceptor": {"system": "α1-adrenoceptor", "experiment": "Antagonism of phenylephrine (α1-agonist) contraction in saphenous vein", "format": "cell-based, Mongrel dogs", "conditions": "compared by pA2 value", "description": "(§1) In this experiment, phenylephrine and clonidine were used as al-agonist and a2-agonist, respectively, and these agonists were cumulatively applied to obtain a dose-response curve."}, "α2-adrenoceptor": {"system": "α2-adrenoceptor", "experiment": "Antagonism of clonidine (α2-agonist) contraction in saphenous vein", "format": "cell-based, Mongrel dogs", "conditions": "clonidine", "description": "as §1"}, "ddY male mice [2]": {"system": "ddY male mice", "experiment": "Ameliorative activity against damage of cerebral hypoxia (reduced pressure)", "format": "in vivo", "conditions": "i.p.; 30 mg/kg compound (I) and ifenprodil tartrate, 16 mg/kg phentolamine", "protocol": "Thirty mg/kg each of compound (I) (lactate) and ifenprodil tartrate and 16 mg/kg of phentolamine, which is an a-adrenoceptor blocker, were intraperitoneally administered to ddY male mice, respectively. […] Time from start of reduction of pressure until stop of respiration in the mice was measured. The control group was drug-untreated."}, "male mice [3]": {"system": "male mice", "experiment": "Isoproterenol-induced tachycardia", "format": "in vivo", "conditions": "25 mg/kg oral, 30 minutes before 0.01 mg/kg isoproterenol i.v.; three male mice", "protocol": "25 mg/kg of compound (I) was orally administered to three male mice. After 30 minutes from administration, 0.01 mg/kg of isoproterenol, which is a β-agonist, was intravenously administered, and the effect of compound (I) on tachycardia induced by isoproterenol was observed. The control group was compound (I) - untreated."}, "male mice [4]": {"system": "male mice", "experiment": "Serum total cholesterol and β-lipoprotein in mice fed high cholesterol food", "format": "in vivo", "conditions": "200 mg/kg oral on 6th and 7th day, high cholesterol food 7 days, three male mice", "protocol": "Three male mice were fed high cholesterol food for 7 days and 200 mg/kg of compound (I) was orally administered on the 6th day and the 7th day. After a fast over night from the 7th day, measurements of the total cholesterol in serum (Abell et al, \"Standard Method of Clinical Chemistry\", vol. 2, page 26, […], published by Academic Press; Kanai et al, \"[…]\", vol. 7, page 64, 1978, published by Kanehara Shuppan) and the amount of β-lipoprotein (Fried-Hoeflmayer, Klin. Wschr., vol. 41, page 246, 1963; Kanai et al, \"Rinsho Kensaho Teiyo\", vol. 7, page 79, 1978, published by Kanehara Shuppan) were conducted. The control group was compound (I)-untreated."}}}
{"compound": "CC(C(O)c1ccc(OCc2ccccc2)cc1)N1CCC(Cc2ccccc2)CC1", "note": "(stereo not drawn) [Compound (I), 2-(4-benzylpiperidino)-l-(4-benzyloxyphenyl)propan-l-ol]", "values": [{"measurement": "LD50", "setting": "Acute toxicity (LD50); iv, venous injection", "value": "> 70", "unit": "mg/kg"}, {"measurement": "LD50", "setting": "Acute toxicity (LD50); oral", "value": "> 1200", "unit": "mg/kg"}, {"measurement": "Relative respiratory rate (%)", "setting": "ddY male mice [1]; 1/3 hr after administration", "value": "53.1 ±11.7 (n=7) %"}, {"measurement": "Relative respiratory rate (%)", "setting": "ddY male mice [1]; 1 hr after administration", "value": "51.2 ±5.6 (n=10) %"}, {"measurement": "Relative respiratory rate (%)", "setting": "ddY male mice [1]; 2 hr after administration", "value": "52.8 ±7.4 (n=10) %"}, {"measurement": "Relative respiratory rate (%)", "setting": "ddY male mice [1]; 3 hr after administration", "value": "49.0 ±8.4(*) (n=9) %"}, {"measurement": "Relative respiratory rate (%)", "setting": "ddY male mice [1]; 5 hr after administration", "value": "41.9 ±11.5 (n=8) %"}, {"measurement": "Number of survival after administration of endotoxin", "setting": "mice; 70 mg/kg oral, 18 hr", "value": 12}, {"measurement": "Number of survival after administration of endotoxin", "setting": "mice; 70 mg/kg oral, 20 hr", "value": 9}, {"measurement": "Number of survival after administration of endotoxin", "setting": "mice; 70 mg/kg oral, 22 hr", "value": 8}, {"measurement": "Number of survival after administration of endotoxin", "setting": "mice; 70 mg/kg oral, 24 hr", "value": 5}, {"measurement": "Number of survival after administration of endotoxin", "setting": "mice; 70 mg/kg oral, 48 hr", "value": 1}, {"measurement": "Number of survival after administration of endotoxin", "setting": "mice; 200 mg/kg oral, 18 hr", "value": 13}, {"measurement": "Number of survival after administration of endotoxin", "setting": "mice; 200 mg/kg oral, 20 hr", "value": 13}, {"measurement": "Number of survival after administration of endotoxin", "setting": "mice; 200 mg/kg oral, 22 hr", "value": 10}, {"measurement": "Number of survival after administration of endotoxin", "setting": "mice; 200 mg/kg oral, 24 hr", "value": 7}, {"measurement": "Number of survival after administration of endotoxin", "setting": "mice; 200 mg/kg oral, 48 hr", "value": 5}, {"measurement": "protective action on the death (endotoxin shock)", "setting": "mice; oral, mice, compound (I) at 200 mg/kg", "value": "remarkable protective action on the death"}, {"measurement": "Fluorescence polarization", "setting": "platelets of rabbit; 1 µM", "value": "2±4"}, {"measurement": "Fluorescence polarization", "setting": "platelets of rabbit; 10 µM", "value": "0±8"}, {"measurement": "Fluorescence polarization", "setting": "platelets of rabbit; 30 µM", "value": "-2±0"}, {"measurement": "Fluorescence polarization", "setting": "platelets of rabbit; 100 µM", "value": "-22±7"}, {"measurement": "competitive antagonism on the α1-agonist relative to that of ifenprodil", "setting": "α1-adrenoceptor", "value": "about 1/15"}, {"measurement": "competitive antagonism on the α1-agonist relative to that of prazosin", "setting": "α1-adrenoceptor", "value": "about 1/8"}, {"measurement": "antagonism on the α2-agonist", "setting": "α2-adrenoceptor; concentration of 10^-5 M", "value": "non- competitive antagonism"}, {"measurement": "antagonism on the α2-agonist", "setting": "α2-adrenoceptor; concentration of 10^-6 M", "value": "No competitive antagonism is recognized"}, {"measurement": "effect on survival time (cerebral hypoxia)", "setting": "ddY male mice [2]", "value": "markedly prolongs survival time"}, {"measurement": "Inhibition % of isoproterenol-induced tachycardia", "setting": "male mice [3]", "value": 23, "unit": "%"}, {"measurement": "Reduction % as compared with control group Total cholesterol", "setting": "male mice [4]; serum", "value": 8, "unit": "%"}, {"measurement": "Reduction % as compared with control group β-lipoprotein", "setting": "male mice [4]", "value": 18, "unit": "%"}]}
